Experimental data from PMC6218115, “In Vitro Potency and Preclinical Pharmacokinetic Comparison of All-D-Enantiomeric Peptides Developed for the Treatment of Alzheimer’s Disease” (Journal of Alzheimer's Disease, 2018).
Read-outs that look alike come from different tables or passages of the source. Non-standard residues stand in square brackets, D forms with d. Residues, ends and D or L forms follow the SMILES beside them.

Key:
[1] = Plasma protein binding, TRANSIL XL AGP binding kit; type: in vitro ADME, human; settings: TRANSIL XL AGP beads 0.04-3 μM, 5 μM peptide (3H-labelled + non-labelled), LSC read-out, nonlinear regression
Protocol: (§1) Plasma protein binding (PPB) to human serum albumin (HSA) and α1-acid glycoprotein (AGP) of ANK6, tANK6, and cANK6r was analyzed according to the manufacturer’s protocol of TRANSIL^XL HSA and AGP binding kits (Sovicell GmbH, Germany). To cover a larger range of HSA and AGP concentrations, the bead concentrations in the kit were modified. For detection, a mixture of ^3H-labelled and non-labelled ANK6, tANK6, and cANK6r (final concentrations of 5μM) was added to different concentrations of HSA (7.4μM to 420μM, 10–12 different concentrations) or AGP beads (0.04μM to 3μM, 9–12 different concentrations). The amount of unbound ANK6, tANK6, and cANK6r (in %) to HSA or AGP, respectively, was determined by liquid scintillation counter (LSC) measurements. The dissociation constants (KD) as well as the free drug fractions (fu) in human plasma were calculated as described before. Calculations were based on peptide concentrations detected in the blood 4 h after single oral administration of 10 mg/kg: 0.01μM ANK6, 0.01μM tANK6, and 0.01μM cANK6r.

[2] = Free drug fraction (fu) in human plasma predicted from HSA and AGP affinities; type: in vitro ADME; settings: predicted from affinities to HSA and AGP, at 0.01 μM peptide (blood level 4 h after oral administration)
Protocol: as §1

Aβ1-42 oligomers = target: T1, Aβ1-42 oligomers (Homo sapiens, UniProt P05067); assay: Quantitative determination of interference with Aβ aggregate size distribution (QIAD); type: biochemical; settings: for Aβ concentrations in fractions 1 and 2 (Aβ monomers): 80 μM Aβ1-42, 20 μM peptide; for Aβ oligomer concentrations in fractions 4 to 6 versus Aβ1-42 alone: 80 μM Aβ1-42 pre-incubated 2.5 h, 20 μM peptide, 40 min, density gradient centrifugation, RP-HPLC UV 214 nm, p≤0.001
T1 construct: Lyophilized Aβ1 - 42 was dissolved in the respective peptide solution; purchased Isoloid GmbH (recombinant) or Bachem AG (synthetic)
T1 sequence (P05067 672-713 limits assumed): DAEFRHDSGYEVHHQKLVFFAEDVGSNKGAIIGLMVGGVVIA
Protocol: As soluble Aβ oligomers are currently expected to be the most neurotoxic Aβ species causing AD, the Aβ1 - 42 oligomer elimination potency of ANK6, tANK6, and cANK6r was investigated by the quantitative determination of interference with Aβ aggregate size distribution (QIAD) similar as described before. In short, lyophilized Aβ1 - 42 was dissolved in sodium phosphate buffer to a final concentration of 80μM and incubated for 2.5 h (21°C, 600 rpm) to achieve an Aβ aggregate distribution including monomers, oligomers, and higher molecular aggregates. Then, sodium phosphate buffer (control), 20μM ANK6, 20μM tANK6, or 20μM cANK6r were added and incubated for further 40 min (21°C, 600 rpm). Afterwards, the samples were loaded on top of a density gradient (5 to 50% (w/v) iodixanol, OptiPrep, Axis-Shield, Norway) and ultra-centrifuged for 3 h (4°C, 259.000× g, Optima TL-100, Beckman Coulter, USA). In the following, 14 fractions (140μL each) were taken from top to bottom, whereby the top fractions (1-2) contained Aβ monomers, the middle fractions (4–6) contained the Aβ oligomers of special interest, and the bottom fractions (11–14) contained high molecular weight co-precipitates. The left-over was diluted in 60μL 6 M guanidine hydrochloride (fraction 15). Finally, the Aβ1 - 42 concentrations in all fractions were determined via analytical RP-HPLC (reversed phase-high performance liquid chromatography) and UV absorbance detection at 214 nm.

Aβ1-42 = target: T2, Aβ1-42 (Homo sapiens, UniProt P05067); assay: Aβ aggregation assay (Thioflavin T); type: biochemical; settings: for molar excess with regard to Aβ for complete inhibition of Aβ1-42 fibril formation: 10 μM Aβ1-42, ThT; for reduction of the aggregation amplitude: equimolar concentration of peptide relative to Aβ1-42 (10 μM)
T2 construct: Lyophilized Aβ1 - 42 was dissolved in the respective peptide solution; purchased Isoloid GmbH (recombinant) or Bachem AG (synthetic)
T2 sequence (P05067 672-713 limits assumed): as above
Protocol: The potencies of ANK6, tANK6, cANK6r, and D3 to inhibit Aβ1 - 42 aggregation was examined using Thioflavin T (ThT). For this purpose, a buffer solution composed of 20 mM sodium phosphate buffer (pH 7.4) including 50 mM sodium chloride, and 5μM ThT was prepared. Afterwards, ANK6, tANK6, cANK6r, or D3 were diluted in this solution, respectively, to final peptide concentrations between 0.3125 and 80μM (ANK6 and tANK6:0.3125, 0.625, 1.25, 2.5, 5, 10, 20μM; cANK6r: 1.25, 2.5, 5, 10, 20, 40, 80μM; D3:1.17, 2.34, 4.7, 9.4, 18.8, 37.5, 75μM).
The buffer solution only served as negative control (blank). Lyophilized Aβ1 - 42 was dissolved in the respective peptide solution to a final concentration of 10μM. D-peptide solutions with the highest concentration of the respective D-peptide containing all components, except of Aβ1 - 42, served as negative controls. Aβ1 - 42 solved in buffer solution without D-peptide served as positive control. 100μL of each solution were transferred into the wells (triplicates) of 96 well microplates (PS, black, non-binding from Greiner Bio-One, Germany) and fluorescence signals (excitationλ 440 nm, emissionλ 490 nm) were measured in a Polarstar Optima plate reader (BMG, Germany) at 37°C every 20 min for 70 h. Afterwards, the respective blank curves were subtracted from each aggregation curve to exclude background fluorescence. […] The half maximal inhibitory concentration (IC50 value) was determined by plotting the percent inhibition against the respective D-peptides’ concentrations. Datasets were fitted by nonlinear regression (one site – specific binding with Hill slope, GraphPad Prism 5).

tg-APPSwDI mice = settings: intraperitoneal treatment, 4 weeks; Klein et al.; cited from earlier work
[3] = target: human serum albumin (HSA) (Homo sapiens, UniProt P02768); assay: Plasma protein binding, TRANSIL XL HSA binding kit; type: in vitro ADME; settings: TRANSIL XL HSA beads 7.4-420 μM, 5 μM peptide (3H-labelled + non-labelled), LSC read-out, nonlinear regression
Sequence of human serum albumin (HSA) (P02768 25-609): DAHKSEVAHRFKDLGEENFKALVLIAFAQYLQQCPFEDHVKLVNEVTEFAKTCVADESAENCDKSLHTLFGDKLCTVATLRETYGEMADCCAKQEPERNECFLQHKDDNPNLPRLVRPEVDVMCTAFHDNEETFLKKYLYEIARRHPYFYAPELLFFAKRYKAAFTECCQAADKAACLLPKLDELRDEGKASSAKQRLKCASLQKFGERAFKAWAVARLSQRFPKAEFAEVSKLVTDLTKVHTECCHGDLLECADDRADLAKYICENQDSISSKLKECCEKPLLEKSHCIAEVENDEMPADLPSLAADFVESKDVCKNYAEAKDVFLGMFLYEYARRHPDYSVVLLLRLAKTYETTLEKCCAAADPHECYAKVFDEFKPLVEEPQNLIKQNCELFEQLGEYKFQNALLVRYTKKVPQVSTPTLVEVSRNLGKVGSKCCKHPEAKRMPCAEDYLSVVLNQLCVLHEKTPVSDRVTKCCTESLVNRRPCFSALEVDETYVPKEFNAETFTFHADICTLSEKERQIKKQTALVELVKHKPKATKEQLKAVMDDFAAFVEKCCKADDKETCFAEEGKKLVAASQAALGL
Protocol: as §1

[4] = 10 μM Aβ1-42, 5 μM ThT, 20 mM sodium phosphate pH 7.4, 50 mM NaCl, 37°C, 70 h, triplicates, nonlinear regression, read-out: IC50, inhibition of Aβ1-42 aggregation into ThT-positive fibrils

Row | Kd [1] | overall fu in plasma (fraction unbound) [2] | Aβ oligomer concentrations in fractions 4 to 6 versus Aβ1-42 alone (Aβ1-42 oligomers) | IC50 (Aβ1-42; [4]) | molar excess with regard to Aβ for complete inhibition of Aβ1-42 fibril formation (Aβ1-42) | SMILES | Aβ concentrations in fractions 1 and 2 (Aβ monomers) (Aβ1-42 oligomers) | reduction of the aggregation amplitude (Aβ1-42) | memory performance of tg-APPSwDI mice (tg-APPSwDI mice) | KD to HSA [3] | IC50 (Aβ1-42)
1 | 60 nM | 0.29% | significantly lowered | 2100 nM | two-fold molar excess | CC[C@@H](C)[C@@H](NC(=O)[C@@H](CCCNC(=N)N)NC(=O)[C@@H](CCCCN)NC(=O)[C@H](N)CCCNC(=N)N)C(=O)N[C@H](CCCNC(=N)N)C(=O)N[C@H](CC(C)C)C(=O)N[C@@H](C(=O)N[C@@H](C(=O)N[C@H](CCCCN)C(=O)N[C@H](CCCCN)C(=O)N[C@H](CCCCN)C(=O)N[C@H](CCCNC(=N)N)C(=O)N[C@H](CCCNC(=N)N)C(=O)N[C@H](CCCCN)C(=O)N[C@H](CCCNC(=N)N)C(=O)N[C@@H](C(=O)N[C@H](CCCNC(=N)N)C(=O)N[C@H](CC(C)C)C(=O)N[C@@H](C(=O)N[C@@H](C(=O)N[C@H](CCCCN)C(=O)N[C@H](CCCCN)C(=O)N[C@H](CCCCN)C(=O)N[C@H](CCCNC(=N)N)C(N)=O)[C@H](C)O)C(C)C)[C@H](C)CC)[C@H](C)O)C(C)C [tANK6] (H-[dR][dK][dR][dI][dR][dL][dV][dT][dK][dK][dK][dR][dR][dK][dR][dI][dR][dL][dV][dT][dK][dK][dK][dR]-NH2; N-terminus assumed) | reduced the Aβ monomer concentrations much stronger | more than 97% | – | – | –
2 | 280 nM | 1.36% | significantly lowered | 3700 nM | about eight-fold molar excess | CC[C@@H](C)[C@H]1NC(=O)[C@@H](CCCNC(=N)N)NC(=O)[C@@H](CCCCN)NC(=O)[C@@H](CCCNC(=N)N)NC(=O)[C@@H](CCCNC(=N)N)NC(=O)[C@@H](CCCNC(=N)N)NC(=O)[C@@H](CCCCN)NC(=O)[C@@H](CCCCN)NC(=O)[C@@H](CCCCN)NC(=O)[C@@H]([C@H](C)O)NC(=O)[C@@H](C(C)C)NC(=O)[C@@H](CC(C)C)NC(=O)[C@@H](CCCNC(=N)N)NC1=O [cANK6r] (cyclo([dR][dK][dR][dI][dR][dL][dV][dT][dK][dK][dK][dR][dR])) | only slightly lowered | – | – | – | –

Row | SMILES | Kd [1] | overall fu in plasma (fraction unbound) [2] | Aβ oligomer concentrations in fractions 4 to 6 versus Aβ1-42 alone (Aβ1-42 oligomers) | IC50 (Aβ1-42; [4]) | molar excess with regard to Aβ for complete inhibition of Aβ1-42 fibril formation (Aβ1-42) | Aβ concentrations in fractions 1 and 2 (Aβ monomers) (Aβ1-42 oligomers) | reduction of the aggregation amplitude (Aβ1-42) | memory performance of tg-APPSwDI mice (tg-APPSwDI mice) | KD to HSA [3] | IC50 (Aβ1-42)
3 | CC[C@@H](C)[C@@H](NC(=O)[C@@H](CCCNC(=N)N)NC(=O)[C@@H](CCCCN)NC(=O)[C@H](N)CCCNC(=N)N)C(=O)N[C@H](CCCNC(=N)N)C(=O)N[C@H](CC(C)C)C(=O)N[C@@H](C(=O)N[C@@H](C(=O)N[C@H](CCCCN)C(=O)N[C@H](CCCCN)C(=O)N[C@H](CCCCN)C(=O)N[C@H](CCCNC(=N)N)C(N)=O)[C@H](C)O)C(C)C [ANK6] (H-[dR][dK][dR][dI][dR][dL][dV][dT][dK][dK][dK][dR]-NH2; N-terminus assumed) | 290 nM | 1.43% | significantly lowered | – | two-fold molar excess | reduced the Aβ monomer concentrations much stronger | more than 97% | a non-significant tendency for improving memory performance | not analyzable | 3600 nM
